Measurements published in patent US12180178B2, “Heteroaryl azole compound and pest control agent” (NIPPON SODA CO., LTD., priority 2018, dated 2024).

Assays:
Type in all cases: in vivo
Phyllotreta striolata = assay: Test of Efficacy on Phyllotreta striolata (spray on Qing geng cai seedlings); conditions: 168 h, sprayed to Qing geng cai seedlings, adults, after 7 days, read-out: insecticidal rate
Method: (§1) 5 parts of the heteroaryl azole compound of the present invention, 93.6 parts of dimethylformamide, and 1.4 parts of polyoxyethylene alkyl aryl ether were mixed and dissolved to prepare emulsion (I) containing 5% of the active ingredient.
(§2) An insecticidal rate was calculated according to the following expression: Insecticidal rate (%)=(The number of dead insects/The number of tested insects)×100
The emulsion (I) was diluted with water such that the concentration of the compound of the present invention was 125 ppm to prepare a test chemical. The test chemical was sprayed to Qing geng cai seedlings (at the seventh true leaf stage) planted in 10-cm pots. The Qing geng cai seedlings were dried in air and then placed in a plastic cup. Ten Phyllotreta striolata adults were released thereto. The plastic cup was stored in a thermostat chamber having a temperature of 25° C. and a humidity of 65%. Life and death were determined after 7 days from the release of the insects, and the insecticidal rate was calculated. The test was conducted in duplicate.

Plutella xylostella = assay: Test of Efficacy on Plutella xylostella (cabbage leaf dip); conditions: foliar, 72 h, cabbage leaves dipped 30 seconds, second instar larvae, after 3 days, read-out: insecticidal rate
Method: 5 parts of the heteroaryl azole compound of the present invention, 93.6 parts of dimethylformamide, and 1.4 parts of polyoxyethylene alkyl aryl ether were mixed and dissolved to prepare emulsion (I) containing 5% of the active ingredient. An insecticidal rate was calculated according to the following expression: Insecticidal rate (%)=(The number of dead insects/The number of tested insects)×100 The emulsion (I) was diluted with water such that the concentration of the compound of the present invention was 125 ppm. Cabbage leaves were dipped in the dilution for 30 seconds. The resulting cabbage leaves were placed in a petri dish. Five second instar larvae of Plutella xylostella were released thereto. The petri dish was placed in a thermostat chamber having a temperature of 25° C. and a humidity of 60%. Life and death were determined after 3 days from the release of the insects, and the insecticidal rate was calculated. The test was conducted in duplicate.

Aphis craccivora = assay: Test of Efficacy on Aphis craccivora (spray on black-eyed peas); conditions: 96 h, 125 ppm, sprayed to black-eyed peas, nymphs, after 4 days, read-out: insecticidal rate
Method: as §1, §2
Seedlings of black-eyed peas were raised in 10-cm pots. Aphis craccivora nymphs were inoculated onto primary leaves. The emulsion (I) was diluted with water such that the concentration of the compound of the present invention was 125 ppm. The dilution was sprayed to the black-eyed peas parasitized by the Aphis craccivora nymphs. The black-eyed peas were placed in a thermostat chamber having a temperature of 25° C. and a humidity of 60%. Life and death of Aphis craccivora were determined after 4 days from the spraying, and the insecticidal rate was calculated. The test was conducted in duplicate.

Mythimna separata = assay: Test of Efficacy on Mythimna separata (test feed); conditions: 1 μl of emulsion (I) (5% active ingredient) in 0.8 g artificial feed; second instar larvae; 25° C.; fifth day
Method: 5 parts of the heteroaryl azole compound of the present invention, 93.6 parts of dimethylformamide, and 1.4 parts of polyoxyethylene alkyl aryl ether were mixed and dissolved to prepare emulsion (I) containing 5% of the active ingredient. For a control, 98.5 parts of dimethylformamide and 1.5 parts of polyoxyethylene alkyl aryl ether were mixed and dissolved to prepare emulsion (II). An insecticidal rate was calculated according to the following expression: Insecticidal rate (%)=(The number of dead insects/The number of tested insects)×100 0.8 g of commercially available artificial feed (Insecta LFS, manufactured by Nosan Corp.) and 1 μl of the emulsion (I) were well mixed to obtain test feed. A plastic test container (capacity: 1.4 ml) was packed with 0.2 g of the test feed per treatment plot. Then, two second instar larvae of Mythimna separata were inoculated to each treatment plot. A plastic lid was put on the test container so as to prevent escape of the second instar larvae of Mythimna separata. The container was placed in a thermostat chamber of 25° C. On the fifth day, the insecticidal rate and the food intake were examined. The test was conducted in duplicate. The insecticidal rate and the food intake of a control plot were examined in the same way as in Test Example 1 except that the emulsion (I) was changed to the emulsion (II).

| SMILES | pest or weed control at 125 ppm (Phyllotreta striolata) | pest or weed control at 125 ppm (Plutella xylostella) | pest or weed control at 125 ppm (Aphis craccivora) | insecticidal rate or food intake as compared with the control plot (Mythimna separata) |
| --- | --- | --- | --- | --- |
| CCS(=O)(=O)c1cc(C2CC2)cnc1-c1ncn(-c2ccc(OC(F)(F)F)cc2)n1 [d-7] | ≥ 80% | ≥ 80% |  |  |
| CCS(=O)(=O)c1cc(-c2ccccn2)cnc1-c1cn(-c2ccc(OC(F)(F)F)cc2)cn1 [d-20] | ≥ 80% | ≥ 80% | ≥ 80% | insecticidal rate of 100% for Mythimna separata or a food intake of 10% or less as compared with the control plot |
| CCS(=O)(=O)c1cc(-c2ncccn2)cnc1-c1ncn(/C=C(\F)C(F)(F)C(F)(F)F)c1C [c-8] | ≥ 80% | ≥ 80% |  |  |
| CCS(=O)(=O)c1cc(-c2ncccn2)cnc1-c1ncn(CC(F)(F)C(F)(F)C(F)(F)F)c1C [c-5] | ≥ 80% | ≥ 80% | ≥ 80% | insecticidal rate of 100% for Mythimna separata or a food intake of 10% or less as compared with the control plot |
| CCS(=O)(=O)c1cc(C2CC2)cnc1-c1cn(-c2ccc(OC(F)(F)F)cc2)cn1 [d-19, 5-cyclopropyl-3-(ethylsulfonyl)-2-(1-(4-(trifluoromethoxy)phenyl)-1H-imidazol-4-yl)pyridine] | ≥ 80% | ≥ 80% | ≥ 80% | insecticidal rate of 100% for Mythimna separata or a food intake of 10% or less as compared with the control plot |
| CCS(=O)(=O)c1cc(C2CC2)c[n+]([O-])c1-c1cn(-c2ccc(OC(F)(F)F)cc2)cn1 [d-22] | ≥ 80% | ≥ 80% | ≥ 80% |  |
| CCS(=O)(=O)c1ccc(-n2cncn2)nc1-c1cn(-c2ccc(OC(F)(F)F)cc2)cn1 [d-24] |  | ≥ 80% | ≥ 80% | insecticidal rate of 100% for Mythimna separata or a food intake of 10% or less as compared with the control plot |
| CCS(=O)(=O)c1ccc(-n2cncn2)nc1-c1ncn(-c2ccc(OC(F)(F)F)cc2)c1Br [d-26] |  | ≥ 80% | ≥ 80% | insecticidal rate of 100% for Mythimna separata or a food intake of 10% or less as compared with the control plot |
| CCS(=O)(=O)c1cc(-c2ccccn2)cnc1-c1ncn(-c2ccc(OC(F)(F)F)cc2)n1 [d-6] | ≥ 80% | ≥ 80% | ≥ 80% | insecticidal rate of 100% for Mythimna separata or a food intake of 10% or less as compared with the control plot |
| CCS(=O)(=O)c1cc(-c2ccccn2)cnc1-c1ncn(-c2ccc(OC(F)(F)F)cc2)c1C [d-25] |  | ≥ 80% | ≥ 80% | insecticidal rate of 100% for Mythimna separata or a food intake of 10% or less as compared with the control plot |
| CCS(=O)(=O)c1cc(-c2ncccn2)cnc1-c1ncn(-c2ccc(OC(F)(F)F)cc2)n1 [d-1] | ≥ 80% | ≥ 80% |  |  |
| CCS(=O)(=O)c1cc(-c2ncccn2)cnc1-c1ncn(/C=C(\F)C(F)(F)I)c1C [c-9] | ≥ 80% | ≥ 80% |  |  |
